Reference: patent EP4608400B1, “COMPOUND FOR TREATMENT OF PAIN” (Initiator Pharma A/S, priority 2022, dated 2024)
pIC50: −log10 of the molar value. Counter-ions that a name gives are not always drawn.

Tests used:
[1] = target: T1, dopamine (DA) reuptake in synaptosomes (Rattus norvegicus, UniProt P23977); details: hydrochloride; reported in US 9,133,184 B1; cited from earlier work
T1 construct: in synaptosomes as described in WO 97/16451 (NeuroSearch A/S); from tissue

[2] = target: T2, noradrenaline (NA) reuptake in synaptosomes (Rattus norvegicus, UniProt Q63380); details: hydrochloride; reported in US 9,133,184 B1; cited from earlier work
T2 construct: in synaptosomes as described in WO 97/16451 (NeuroSearch A/S); from tissue
T2 sequence (Q63380 1-617): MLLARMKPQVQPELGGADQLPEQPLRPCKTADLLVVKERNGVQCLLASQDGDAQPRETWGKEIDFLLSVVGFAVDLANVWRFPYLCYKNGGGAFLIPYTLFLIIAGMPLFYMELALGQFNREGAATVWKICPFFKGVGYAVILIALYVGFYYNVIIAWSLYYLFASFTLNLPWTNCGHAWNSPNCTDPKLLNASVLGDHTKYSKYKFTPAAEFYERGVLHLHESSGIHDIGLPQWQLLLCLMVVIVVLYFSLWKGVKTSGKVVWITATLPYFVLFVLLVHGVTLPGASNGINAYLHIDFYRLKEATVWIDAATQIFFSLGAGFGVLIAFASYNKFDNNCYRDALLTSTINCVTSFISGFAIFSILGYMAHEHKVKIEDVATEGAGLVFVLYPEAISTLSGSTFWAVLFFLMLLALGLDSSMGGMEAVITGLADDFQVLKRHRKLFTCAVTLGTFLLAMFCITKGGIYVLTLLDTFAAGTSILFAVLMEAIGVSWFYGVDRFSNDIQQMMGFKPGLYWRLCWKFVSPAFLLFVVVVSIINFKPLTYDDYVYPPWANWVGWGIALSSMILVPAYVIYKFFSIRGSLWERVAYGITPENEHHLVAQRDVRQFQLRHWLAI

[3] = test system: intradermal capsaicin model; test: Phase I crossover study, intradermal capsaicin model: pharmacodynamics; type: in vivo, human
Excerpt: Participants. The volunteers were males aged 18 to 55 years with a body mass index (BMI) of 18 to 30 kg/m2. They were healthy as determined by a responsible physician, based on a medical evaluation including medical history, physical examination, concomitant medication, vital signs, 12-lead ECG, and clinical laboratory evaluations. The participants must have been in good general health with a skin type compatible with the measures and without significant skin allergies, pigmentary disorders or any active dermatological conditions. […] The participants provided written informed consent, which included compliance with the requirements and restrictions listed in the consent form, including the use of a condom during the trial and for 3 months after their final dose of trial medication, if their partner was a woman of childbearing potential.
Clinical and laboratory data. Prior to and 15, 30, 60, 90 and 120 minutes after administration of capsaicin, measurements of pain, hyperalgesia, allodynia and AF were performed. At 2 hours post-capsaicin injection, subjects completed a quantitative sensory testing (QST) battery at two sites on the volar surface of each forearm. One site was the most recent capsaicin injection site, and the other was at an equivalent point on the opposite forearm. […] There was a minimum washout period of 5 days between treatment periods.
Reconstitution was performed by a Pharmacist at the clinical site prior to dosing.
(§1) In order to maintain the blind, a double dummy approach was used.
Subjects were randomised to receive a single administration of a treatment combination during each treatment period. All subjects received each treatment combination once only.
Evaluation methods: Pharmacodynamics was assessed through pain measurements (response to ID injection of capsaicin, measurement of pain using a visual analogue scale, area and pain score of hyperalgesia, area and pain score of allodynia, and AF) and the ID capsaicin model. Subjects also completed a QST battery at two sites on the volar surface of either forearm. The QST battery included the following tests: thermal detection and pain thresholds, mechanical detection and pain thresholds, stimulus/response functions, wind-up ratio and pressure pain threshold.
For measurement of pain, a visual analogue scale (VAS) was used. The VAS consisted of a 100 mm line, with 0 representing "no pain" and 100 representing "worst pain imaginable". Subjects were asked to mark the VAS using a single vertical stroke at the point they considered to appropriately reflect their level of pain from the injection of capsaicin (not general pain). A new VAS was provided for each time point and subjects were not allowed to see their previous VAS responses. The VAS was scored by measuring from the left-hand end of the scale to the point where the subject had marked the line, and the distance in mm was recorded.
Response to pain was also assessed by a numeric rating scale (NRS). For example, by using an 11-point numeric rating scale ranging from 0 ("no pain") to 10 ("worst possible pain") and asking the subject to rate their pain. A NRS scale of 0 to 100 was also used in some assesments.
The thermal tests were performed using a thermode probe (Medoc). Cold and warm detection thresholds were measured first, then cold pain and heat pain thresholds were determined. The mean threshold temperature of 3 consecutive measurements was calculated. All thresholds were obtained with ramped stimuli (1°C/sec) that were terminated when the subject pressed a button. For thermal detection thresholds the ramp back to baseline was 1°C/sec, while for thermal pain thresholds this ramp was chosen at maximum device capacity resulting in approximately a nominal 5°C/sec.
The mechanical detection threshold was measured with a standardised set of modified von Frey nylons that exerted forces upon bending between 0.25 and 512 mN graded by a factor of 2 (1 to 2 seconds contact time). […]

[4] = Phase I crossover study, intradermal capsaicin model: safety evaluation (TEAEs); type: in vivo, human; details: 300 mg pregabalin
Procedure: as §1
Safety was assessed through AE reporting, 12-lead ECG, vital signs, physical examinations and clinical laboratory evaluations. Pharmacokinetics was assessed by blood sampling.

T1 sequence (P23977 whole entry): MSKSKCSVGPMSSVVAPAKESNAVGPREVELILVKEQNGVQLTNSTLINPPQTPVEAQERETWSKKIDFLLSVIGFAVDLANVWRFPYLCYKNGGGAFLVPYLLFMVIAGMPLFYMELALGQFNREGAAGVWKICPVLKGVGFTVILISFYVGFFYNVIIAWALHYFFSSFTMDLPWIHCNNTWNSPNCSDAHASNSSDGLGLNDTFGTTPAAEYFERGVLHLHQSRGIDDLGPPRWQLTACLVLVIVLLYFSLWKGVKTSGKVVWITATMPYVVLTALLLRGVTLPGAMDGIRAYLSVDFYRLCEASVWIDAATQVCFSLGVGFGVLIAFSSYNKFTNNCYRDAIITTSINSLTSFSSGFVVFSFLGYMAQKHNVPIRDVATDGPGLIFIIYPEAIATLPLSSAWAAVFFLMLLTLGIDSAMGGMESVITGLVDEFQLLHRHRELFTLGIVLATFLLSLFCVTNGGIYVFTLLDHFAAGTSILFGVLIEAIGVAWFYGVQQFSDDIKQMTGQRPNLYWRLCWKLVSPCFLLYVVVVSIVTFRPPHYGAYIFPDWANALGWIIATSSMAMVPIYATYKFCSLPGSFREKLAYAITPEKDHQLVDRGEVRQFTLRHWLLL

## COc1cc2ccc(O[C@@H]3C[C@H]4CC[C@@H](C3)N4)cc2oc1=O [compound of formula (I) hydrochloride, exo-7-[(8-azabicyclo[3.2.1]octan-3-yl)oxy]-3-methoxy-chromen-2-one hydrochloride]
[1]
  pIC50: 7.15
[2]
  pIC50: 8.42

## CC(C)C[C@H](CN)CC(=O)O [pregabalin, reference compound]
[3]; 5 mg and 10 mg IP2015, 300 mg pregabalin, all post-capsaicin injection timepoints
  adjusted mean pain score of hyperalgesia compared to placebo: lower
[3]; 300 mg pregabalin
  average decrease in hyperalgesic area across all timepoints compared to placebo: 7.8 cm^2
[3]; 300 mg pregabalin capsule, overall, all timepoints, N=24, placebo 2.0
  Pain Score of Brush-evoked Allodynia Using an NRS, Adjusted Mean (MMRM): 1.5
[3]; 300 mg pregabalin capsule, overall, all timepoints, N=24, placebo 17.1
  Subjective Rating of Pain, Adjusted Mean (MMRM): 14.4 mm
[3]; 300 mg pregabalin, 15 min post capsaicin
  decrease of subjective rating of pain compared to placebo: 1.5 mm
[3]; 300 mg pregabalin, 30 min post capsaicin
  decrease of subjective rating of pain compared to placebo: 3.8 mm
[3]; 300 mg pregabalin, 60 min post capsaicin
  decrease of subjective rating of pain compared to placebo: 4.4 mm
[3]; 300 mg pregabalin, p = 0.063, post-hoc analysis
  overall increase in warm detection threshold between test and control areas (QST): close to significance
[4]
  incidence of TEAEs (share of subjects): 79.2%
  moderate TEAE dizziness: 1 subject
  moderate TEAE mood altered: 1 subject
  number of TEAEs reported: 28 events
  subjects reporting TEAEs: 19 subjects
